Measured values: article PMC12998938, “Neutrophil store-operated Ca^2+ entry: A correctable biomarker of cystic fibrosis lung disease progression” (Journal of cystic fibrosis : official journal of the …, 2025)

How the values were obtained:
[1] = system: SOCE/Orai1 in CF peripheral blood neutrophils; assay: Fluo-4 Ca2+ assay, global thapsigargin-stimulated Ca2+ response (SOCE), CF neutrophils; format: cell-based, human; conditions: CF, 1 μM thapsigargin
Procedure: (§1) Neutrophils were immediately isolated by negative selection from deidentified blood samples using an EasySep human neutrophil isolation kit (Stem Cell Technologies) as described. Cytosolic Ca^2+ was measured using Fluo-4 as described. Protein lysate from isolated blood neutrophils was characterized by liquid chromatography with tandem mass spectrometry (LC-MS/MS) as described. Degranulation products in media were quantified by Luminex assay using a custom Bio-Plex human kit (BioRad) per the manufacturer’s protocol […]. Detailed methods for all experiments and measurements are provided in an online data supplement.
(§2) Isolated neutrophils were incubated with peptide or vehicle control for 3 h. For the final hour of treatment, cells were loaded with Fluo-4 direct (Thermofisher) for 45 min at 37°C and 15 min at room temperature as described.
(§3) Fluo-4 Ca^2+ assays. Isolated neutrophils were incubated with peptide or vehicle control for 3 h. For the final hour of treatment, cells were loaded with Fluo-4 direct (Thermofisher) for 45 min at 37°C and 15 min at room temperature. For global Ca^2+ measurements, baseline fluorescent readings were made for 2 min (1 read every 30 s) using a Tecan Infinite M1000 plate reader (ex 494 em 516 nm, bandwidth 5 nm) before thapsigargin (Sigma-Aldrich) was added and the change in emission was recorded for 10 min (1 read every 30 s). To isolate phases of store operated Ca^2+ entry, cells underwent 3 rounds of centrifugation and resuspension in Ca^2+-free Ringer’s solution to remove extracellular Ca^2+. Baseline fluo-4 fluorescence was read for 2 min before cell were stimulated with thapsigargin (Tocris). Reads continued for ~5 min before 1.2 mM Ca^2+ was added to the extracellular solution and SOCE was measured for ~10 mins. For analysis, all fluo-4 fluorescence reads are normalized to baseline.

[2] = system: Ca2+ influx in non-CF neutrophils; assay: Fluo-4 Ca2+ influx across the plasma membrane, non-CF neutrophils; format: cell-based, human; conditions: thapsigargin 1 μM, regardless of genotype
Procedure: as §2
(§4) Fig. 3. ELD607 inhibits SOCE in non-CF and CF neutrophils. (A) and (B) Mean changes in fluo-4 fluorescence as a marker of cytoplasmic Ca^2+ levels in non-CF and CF neutrophils respectively before and after stimulation with 1 μM thapsigargin (Tg). Before stimulation, neutrophils were exposed to vehicle (0.1% DMSO in PBS), 10 μM ELD607 or scrambled peptide (control) for 3 h. N = 10 non-CF and 21 CF donors. Stats show ELD607 vs vehicle or scrambled peptide based on color. (C-F) Isolation of ER Ca^2+ release vs Ca^2+ influx across the plasma membrane in non-CF and CF Neutrophils. Neutrophils were stimulated with thapsigargin (1 μM) in the absence of extracellular Ca^2+ to allow the release of Ca^2+ stores to be measured. Extracellular Ca^2+ was then returned so that extracellular Ca^2+ influx could be measured. (C) Mean fold change in Fluo-4 fluorescence during ER store release in non-CF and CF neutrophils. […] (E) Mean fold change in fluo-4 fluorescence during Ca^2+ influx in non-CF and CF neutrophils. […]
(§5) SOCE has 2 phases: release of Ca^2+ from ER stores and Ca^2+ influx from the extracellular space via Ca^2+ channels such as Orai1. […] Once the stores had emptied, extracellular Ca^2+ was reintroduced and Ca^2+ influx was measured (Fig. 3C–F).
(§6) Fluo-4 Ca^2+ assays. […] For global Ca^2+ measurements, baseline fluorescent readings were made for 2 min (1 read every 30 s) using a Tecan Infinite M1000 plate reader (ex 494 em 516 nm, bandwidth 5 nm) before thapsigargin (Sigma-Aldrich) was added and the change in emission was recorded for 10 min (1 read every 30 s). […] Baseline fluo-4 fluorescence was read for 2 min before cell were stimulated with thapsigargin (Tocris). Reads continued for ~5 min before 1.2 mM Ca^2+ was added to the extracellular solution and SOCE was measured for ~10 mins. For analysis, all fluo-4 fluorescence reads are normalized to baseline.

[3] = system: SOCE/Orai1 in non-CF peripheral blood neutrophils; assay: Fluo-4 Ca2+ assay, global thapsigargin-stimulated Ca2+ response (SOCE), non-CF neutrophils; format: cell-based, human; conditions: 1 μM thapsigargin
Procedure: as §1, §2, §3

[4] = system: Ca2+ influx in CF neutrophils; assay: Fluo-4 Ca2+ influx across the plasma membrane, CF neutrophils; format: cell-based, human; conditions: thapsigargin 1 μM, regardless of genotype
Procedure: as §2, §4, §5, §6

[5] = system: inositol monophosphatase 2 (printed IMAP2); conditions: no reference printed with the statement; cited from earlier work
Description: Increased SOCE has previously been described in CF neutrophils and may be causal for CF neutrophil hyperactivity. However, Orai1’s involvement in SOCE in neutrophils has not been extensively studied, and the impact of CFTR modulator therapies on Orai1/SOCE is not well-understood. To globally assess the impact of ETI on CF neutrophils, we first performed a proteomic analysis. This analysis identified multiple proteins that were differentially expressed in CF-derived neutrophils relative to neutrophils from non-CF participants, even though the majority of pwCF in this part of the study ha ...

SOCE, Orai1 and STIM1 = conditions: ref [49]; cited from earlier work
CF neutrophils = conditions: ex vivo treatment; ref [12]; cited from earlier work
Description: Since SPLUNC1 is rapidly degraded ...

SOCE in CF neutrophils = conditions: in vitro CFTR potentiation; ref [12]; cited from earlier work
Description: We have previously reported that Ca^2+ signaling is influenced by estrogen in pwCF airways. […] Circulating neutrophil levels fluctuate during the menstrual cycle and sex-specific differences in neutrophil function have previously been described. It may have been that all our female participants had low circulating estrogen levels at time of sample, or that SOCE in neutrophils is less-estrogen sensitive than SOCE in airway epithelia. Importantly, most CF participants were taking CFTR modu ...

neutrophil elastase = conditions: neutrophil elastase; ref [20]; cited from earlier work

## C/C=C(/C)C(=O)O[C@H]1C(C)=C2[C@H]([C@@H]1OC(=O)CCCCCCC)[C@@](C)(OC(C)=O)C[C@H](OC(=O)CCC)[C@@]1(O)[C@H]2OC(=O)[C@@]1(C)O [thapsigargin]
[1]; Fluo-4, vs non-CF p<0.001
  rate of activation (slope) of cytoplasmic Ca2+ response: 0.085 ± 0.009
[1]; n = 10 non-CF, 21 CF
  increase in cytoplasmic Ca2+ vs non-CF: significantly greater increases in cytoplasmic Ca^2+ than non-CF controls
[2]
  Ca2+ influx relative to ER Ca2+ release, non-CF: ~ 10 fold
[3]; vs CF p<0.001
  rate of activation (slope) of cytoplasmic Ca2+ response: 0.033 ± 0.012
[4]
  Ca2+ influx relative to ER Ca2+ release, CF: ~ 10 fold

## [Li] [lithium]
[5]
  effect of IMPA2 inhibition on inositol phosphate: cellular accumulation of inositol phosphate

## NCCOB(c1ccccc1)c1ccccc1 [2-aminoethoxydiphenyl borate]
SOCE, Orai1 and STIM1
  inhibition of SOCE, Orai1 and STIM1: broad spectrum SOCE antagonist that also inhibits Orai1 and STIM1

## VIRGINDMHVL [scrambled ELD607, scrambled version of ELD607 (negative control peptide)]
[1]; 10 μM peptide, 3 h pre-treatment, Fluo-4, N = 21 donors
  inhibition of SOCE (global Ca2+ response): no effect on SOCE in either group
[3]; 10 μM peptide, 3 h pre-treatment, N = 10 donors
  inhibition of SOCE (global Ca2+ response): no effect on SOCE in either group

## CC(C)(C)c1cc(C(C)(C)C)c(NC(=O)c2c[nH]c3ccccc3c2=O)cc1O [Kalydeco]
CF neutrophils
  bacterial killing by CF neutrophils: improved
SOCE in CF neutrophils
  SOCE and bacterial killing of CF neutrophils: sufficient to normalize SOCE and CF neutrophil bacterial killing

B1: SPLUNC1: short palate lung and nasal epithelial clone 1, endogenous protein (protein, UniProt Q9NP55 20-256, looked up)
BPI fold-containing family A …: QFGGLPVPLDQTLPLNVNPALPLSPTGLAGSLTNALSNGLLSGGLLGILENLPLLDILKPGGGTSGGLLGGLLGKVTSVIPGLNNIIDIKVTDPQLLELGLVQSPDGHRLYVTIPLGIKLQVNTPLVGASLLRLAVKLDITAEILAVRDKQERIHLVLGDCTHSPGSLQISLLDGLGPLPIQGLLDSLTGILNKVLPELVQGNVCPLVNEVLRGLDITLVHDIVNMLIHGLQFVIKV
Neutrophil elastase
  degradation by neutrophil elastase: rapidly degraded by neutrophil elastase
